Assay results published in US20150038435A1, “N-TERMINALLY MODIFIED OLIGOPEPTIDES AND USES THEREOF” (Novo Nordisk A/S, priority 2012, published 2015).
Starred links: 1 amine or outer side, 2 acyl side, 3 side chain; linkers in the order of their positions; H or OH if unused. Non-standard residues stand in square brackets, D forms with d. *: point of attachment. γGlu = O=C(O)[C@H](CCC(=O)[*:2])N[*:1]; Lauroyl = CCCCCCCCCCCC(=O)*; Decanoyl = CCCCCCCCCC(=O)*

Tests used:
Trypsin = assay: Inhibition of enzymatic degradation of a model GLP-1 (FRET substrate) by trypsin; format: biochemical; details: for EC50: read-out: EC50 Trypsin (0.001 mg/ml), 0.001 mg/ml trypsin, 37° C.
Excerpt: (§1) The use of Förster resonance energy transfer (FRET), also known as fluorescence resonance energy transfer, substrates to monitor activity of proteolytic enzymes is known in the field (for example Anjuere, F. et al. (1993). Biochem J 291 (Pt 3), 869-73).
(§2) Model GLP-1 analogue was designed as FRET substrate by incorporation of 7-Methoxycoumarin-4-acetic acid (MCA) group as the donor chromophore and dinitrophenol group (DNP) as the acceptor chromophore.
(§3) An assay following the increase in fluorescence as a function of time was established in 96 well format using Varioskan Flash Multimode Meter (Thermo Scientific). Each well contained 70 μl of Dulbecco's phosphate buffer saline (Invitrogen catalogue #14190-094), 10 μl of 100 μM GLP-1 FRET substrate, 10 μl of N-terminally acylated peptide or oligopeptide of the invention in varying concentration and 10 μl of a stock solution of an enzyme (chymotrypsin, trypsin, elastase, etc.). The incubations were performed at 37° C. Fluorescence (320 nm excitation wavelength and 405 nm emission wavelength) was measured immediately after addition of the enzyme to the 96 well plate and also every minute for at least the next 30 minutes. The concentration of the enzyme was optimized to allow determination of slopes for the time course of initial fluorescence increase with and without the N-terminally acylated peptides or oligopeptides of the invention. The slopes were determined by linear regression of the linear part of the fluorescence trace (for example, the first 10 min of the reaction). Each assay was performed in duplicate and average of the two traces was included in the calculations. The relative effect of N-terminally acylated peptide or oligopeptides of the invention on enzymatic degradation of GLP-1 FRET substrate was obtained by comparison of the slopes achieved by the same concentration of the N-terminally acylated peptide or oligopeptides. […] This was done by plotting the slopes achieved with different concentrations of the N-terminally acylated peptide or oligopeptides of the invention as a function of their concentrations and fitting the experimental results using, for example, sigmoidal logistic regression (2 parameters, Sigma Plot v 11). Inhibition constants for the interaction between the N-terminally acylated peptide or oligopeptides of the invention and proteolytic enzymes were also obtained by performing the assay described above with varying concentrations of the inhibitor and substrate and analyzing the results, for example, by double reciprocal transformation as known to the person skilled in the art and described for example in Hubalek, F. et al., J. Med. Chem. 47, 1760-1766 (2004).
(§4) The EC50 was determined for the following compounds. EC50±standard error is reported if the results of at least 3 independent measurements were available.

[1] = Hydrophobicity: retention time during reverse phase HPLC; format: physicochemical; details: Acquity CSH C18; pH 7.2 buffer/CH3CN gradient; 40° C.
Excerpt: The retention time (RT) during reverse phase HPLC was taken as a measure of hydrophobicity of an N-terminally modified peptide or oligopeptide of the invention, where the connection is: The longer the RT, the more hydrophobic N-terminally modified peptide or oligopeptide. The following running conditions were applied during HPLC analysis:
Buffer B: 70% (v/v) aq. CH3CN

Chymotrypsin = assay: Inhibition of enzymatic degradation of a model GLP-1 (FRET substrate) by chymotrypsin; format: biochemical; details: for EC50: read-out: EC50 Chymotrypsin (0.001 mg/ml), 0.001 mg/ml chymotrypsin, 37° C., ± standard error if at least 3 measurements
Excerpt: as §1, §2, §3, §4

[2] = compound 0.1 mM, buffer containing 8% DMSO

| RT (retention time during reverse phase HPLC as a measure of hydrophobicity) [1] | EC50 (Chymotrypsin) | EC50 (Trypsin) | Substance | other results |
| --- | --- | --- | --- | --- |
| 6.13 min |  |  | N-dodecanoyl-βAla-Ala-Pro-Phe-OH [Example 8] | Slope of the initial increase in fluorescence obtained during incubation with 0.001 mg/ml Trypsin (Trypsin; compound 1 mM): 0.70; Slope of the initial increase in fluorescence obtained during incubation with 0.001 mg/ml Chymotrypsin (Chymotrypsin; compound 1 mM): 0.03 |
| 6.04 min |  |  | N-dodecanoyl-βAla-βAla-Pro-Phe-OH [Example 10] | Slope of the initial increase in fluorescence obtained during incubation with 0.001 mg/ml Trypsin (Trypsin; compound 1 mM): 3.29; Slope of the initial increase in fluorescence obtained during incubation with 0.001 mg/ml Chymotrypsin (Chymotrypsin; compound 1 mM): 0.05 |
| 6.2 min |  |  | N-dodecanoyl-Pro-Ala-Ala-Pro-Tyr-OH [Example 48] | Slope of the initial increase in fluorescence obtained during incubation with 0.001 mg/ml Trypsin (Trypsin; [2]): 1.55; Slope of the initial increase in fluorescence obtained during incubation with 0.001 mg/ml Chymotrypsin (Chymotrypsin; [2]): 0.07 |
| 4.95 min | > 500 µM |  | N-tetradecanoyl-γGlu-βAla-βAla-Pro-Phe-OH [Example 139] |  |
| 3.66 min | > 500 µM |  | N-dodecanoyl-γGlu-Ala-Ala-Pro-Arg-OH [Example 25] |  |
| 6.59 min | 167 µM |  | N-dodecanoyl-Ala-Ala-Ala-Pro-Phe-OH [Example 18] |  |
| 6.88 min | 379 µM |  | N-dodecanoyl-Ala-Ala-Pro-Phe-Pro-OH [Example 24] |  |
|  | 51 µM | 93 µM | N-tetradecanoyl-Thr-Ala-Ala-Pro-Phe-OH [Example 173] |  |
|  | 90 µM | 169 µM | N-tetradecanoyl-Lys-Ala-Arg-Pro-Phe-OH [Example 193] |  |
| 7.7 min | > 500 µM |  | N-tetradecanoyl-βAla-βAla-βAla-βAla-Pro-Phe-OH [Example 137] |  |
|  | 428 µM | > 500 µM | N-tetradecanoyl-γGlu-D-Ala-D-Ala-D-Pro-D-Phe-OH [Example 156] |  |
|  | 17 µM | 16 µM | N-octadecanoyl-γGlu-Ala-Ala-Pro-Phe-OH [Example 160] |  |
|  | 19 µM | 84 µM | N-tetradecanoyl-γGlu-His-Ala-Arg-Pro-Phe-OH [Example 194] |  |
|  | 35 µM | 122 µM | N-tetradecanoyl-Leu-Ala-Ala-Pro-Tyr-OH [Example 159] |  |
|  | 73 µM | 44 µM | N-tetradecanoyl-Ala-Ala-Pro-D-Phe-OH [Example 185] |  |

| Substance | RT (retention time during reverse phase HPLC as a measure of hydrophobicity) [1] | EC50 (Chymotrypsin) | EC50 (Trypsin) | other results |
| --- | --- | --- | --- | --- |
| N-decanoyl-Ala-Ala-Pro-Arg-OH (Decanoyl-AAPR-OH; SMILES CCCCCCCCCC(=O)N[C@@H](C)C(=O)N[C@@H](C)C(=O)N1CCC[C@H]1C(=O)N[C@@H](CCCNC(=N)N)C(=O)O) [Example 20] | 3.79 min | > 500 µM |  |  |
| N-dodecanoyl-γGlu-Ala-Pro-Phe-OH (Lauroyl-[γGlu]APF-OH; SMILES CCCCCCCCCCCC(=O)N[C@@H](CCC(=O)N[C@@H](C)C(=O)N1CCC[C@H]1C(=O)N[C@@H](Cc1ccccc1)C(=O)O)C(=O)O) [Example 22] | 4.09 min | > 500 µM |  |  |
| N-dodecanoyl-γGlu-Ala-Pro-Arg-OH (Lauroyl-[γGlu]APR-OH; SMILES CCCCCCCCCCCC(=O)N[C@@H](CCC(=O)N[C@@H](C)C(=O)N1CCC[C@H]1C(=O)N[C@@H](CCCNC(=N)N)C(=O)O)C(=O)O) [Example 21] | 3.66 min | > 500 µM |  |  |
| N-dodecanoyl-Ala-Ala-Pro-Tyr-OH [Example 17] (Lauroyl-AAPY-OH; SMILES CCCCCCCCCCCC(=O)N[C@@H](C)C(=O)N[C@@H](C)C(=O)N1CCC[C@H]1C(=O)N[C@@H](Cc1ccc(O)cc1)C(=O)O) | 5.83 min |  |  |  |
